pEC50: −log10 of the molar value. Starred links: 1 amine or outer side, 2 acyl side, 3 side chain; linkers in the order of their positions; H or OH if unused. Residues, ends and D or L forms follow the SMILES beside them. *: point of attachment. C18 diacid = O=C(O)CCCCCCCCCCCCCCCCC(=O)*; γGlu = O=C(O)[C@H](CCC(=O)[*:2])N[*:1]

The text below walks through data of US12116388B2, “Amylin receptor agonists” (Novo Nordisk A/S, priority 2022, dated 2024).

Data set [1] deals with T1, human amylin receptor (hAMYR3) (Homo sapiens, UniProt O60896+P30988).
T1 construct: host or cells: BHK (Baby Hamster Kidney), Hollex-1 cell line further transfected with RAMP3
T1 sequence (P30988 25-474): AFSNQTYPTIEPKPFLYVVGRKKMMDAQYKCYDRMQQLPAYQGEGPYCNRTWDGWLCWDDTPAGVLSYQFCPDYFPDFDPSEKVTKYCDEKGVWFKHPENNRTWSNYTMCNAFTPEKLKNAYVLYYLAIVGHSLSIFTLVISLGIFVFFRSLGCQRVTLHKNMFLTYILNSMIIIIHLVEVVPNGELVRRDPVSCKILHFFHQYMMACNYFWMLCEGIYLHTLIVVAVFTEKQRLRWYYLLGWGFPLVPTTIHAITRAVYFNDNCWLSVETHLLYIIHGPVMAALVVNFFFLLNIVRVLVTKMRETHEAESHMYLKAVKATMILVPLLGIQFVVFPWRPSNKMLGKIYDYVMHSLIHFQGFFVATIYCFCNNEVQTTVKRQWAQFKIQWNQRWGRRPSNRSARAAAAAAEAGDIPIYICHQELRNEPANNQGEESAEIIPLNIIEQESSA
T1 sequence (O60896 24-148): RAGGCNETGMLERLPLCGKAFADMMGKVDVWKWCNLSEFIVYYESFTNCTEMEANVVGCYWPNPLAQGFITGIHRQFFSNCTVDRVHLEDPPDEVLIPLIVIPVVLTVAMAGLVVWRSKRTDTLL
Briefly: Human amylin receptor (hAMYR3) in vitro potency assay, CRE-luciferase reporter in BHK cells. Conditions: BHK hAMYR3/CRE-Luc cells, 3 hours incubation, assay buffer with 1% ovalbumin. It is filed as cell-based. A digest of the protocol:
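Luminescence from a CRE-driven luciferase reporter reflects cAMP-mediated receptor activation. Peptides were serially diluted (7 concentrations, 7-fold steps, typically starting near 10 nM) in buffer with 1% ovalbumin and applied for 3 h at 37 °C to BHK cells co-expressing calcitonin receptor (a) and RAMP3.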
(In general: A reporter such as luciferase makes a cellular process visible.)

Data set [2] in a line: Oral pharmacokinetic profiles in Beagle dogs (SNAC tablets). It is filed as in vivo. Conditions: oral tablet: 3 mg compound, 300 mg SNAC, 7.7 mg magnesium stearate; for half-life: male, dog, plasma, read-out: T½ (converted). On the procedure: To be able to evaluate oral exposure following tablet dosing, tablet compositions comprising the test substance and SNAC (sodium N-(8-(2-hydroxybenzoyl)amino)caprylate) were prepared by mixing test substance with roller compacted SNAC and magnesium stearate as, e.g., described in WO 2019/149880.
This assay was performed to measure the oral bioavailability of a compound. The assay determined the exposure of test compound following oral administration in Beagle dogs as described by relevant pharmacokinetic parameters and plasma concentration curves.
Preparation of tablets for oral administration: tablets containing test compound used for the assay described herein were immediate release SNAC-based tablets. The test compound was spray-dried as neutral sodium salt (pH 7-8). Dry granulation was carried out by roller compaction on a Gerteis MINI-PACTOR. Tablets containing 3 mg test compound, 300 mg sodium N-(8-(2-hydroxybenzoyl)amino)caprylate (SNAC) and 7.7 mg magnesium stearate were produced on at Kilian Style One using 7.2×12 mm punches.
Determination of the absorption following oral administration: eight (8) male Beagle dogs, 1 to 8 years of age and weighing approximately 10-15 kg at the start of the studies, were used. The dogs were group-housed in pens (12 hours light:12 hours dark), and fed individually and restrictedly once daily with Royal Canin Medium Adult dog (Royal Canin Products, China Branch, or Brogaarden A/S, Denmark). Exercise and group social were permitted daily, whenever possible. The dogs were used for repeated pharmacokinetic studies with a suitable wash-out period between successive dosing. An appropriate acclimatisation period was given prior to initiation of the first pharmacokinetic study. All handling, dosing and blood sampling of the animals were performed by trained and skilled staff. Before the studies the dogs were fasted overnight and from 0 to 4 h after dosing. Besides, the dogs were restricted to water 1 hour before dosing until 4 hours after dosing, but otherwise had ad libitum access to water during the whole period.
Tablets containing the test compound were administered in the following manner: 10 min prior to tablet administration the dogs were dosed subcutaneously with approximately 3.2 nmol/kg of glucagon. The tablets were placed in the back of the mouth of the dog to prevent chewing. The mouth was then closed, and 10 mL of tap water was given by a syringe to facilitate swallowing of the tablet. Blood was sampled at predefined time points for up till 288 hours after dosing to adequately cover the full plasma concentration-time absorption profile of the compound. For each blood sampling time point approximately 1.2 mL of whole blood was collected in a 1.5 mL EDTA coated tube, and the tube was gently turned to allowing mixing of the sample with the EDTA. Then, the blood samples were kept on ice until centrifugation (4 min, 4° C., 4000 rpm). Plasma was pipetted into Micronic tubes on dry ice and kept at −20° C. until analysis. Blood samples were taken as appropriate, for example from a venflon in the cephalic vein in the front leg for the first 2 hours and then with syringe from the jugular vein for the rest of the time points (the first few drops were allowed to drain from the venflon to avoid heparin saline from the venflon in the sample).
Bioanalysis was carried out as follows: plasma concentrations of test compound were assayed by plasma protein precipitation and analysed by liquid chromatography-mass spectrometry (LC-MS). Calibrators were prepared by spiking blank dog plasma with analytes to reach the final concentrations in the range typically from 0.5 to 200 nM. Calibrators, plasma blanks or study samples were prepared for LC-MS by protein precipitation by adding 3 volumes of ethanol followed by centrifugation at 4000 rpm at 4° C. for 1 h. The supernatant was diluted with 2 volumes of Milli-Q water containing 0.1% formic acid before injection on the LC-MS system. […]

The term pEC50 denotes −log10 of the EC50, conventionally taken in molar units. On to `CC[C@H](C)[C@H](NC(=O)[C@@H]1CCCN1C(=O)CNC(=O)[C@H](Cc1ccccc1)NC(=O)[C@H](CC(N)=O)NC(=O)[C@H](CC(=O)O)NC(=O)[C@H](CO)NC(=O)[C@H](CO)NC(=O)[C@H](Cc1c[nH]cn1)NC(=O)[C@H](Cc1c[nH]cn1)NC(=O)[C@H](CC(C)C)NC(=O)[C@H](Cc1ccccc1)NC(=O)[C@H](CCC(=O)O)NC(=O)[C@H](C)NC(=O)[C@H](CC(C)C)NC(=O)[C@H](CCCNC(=N)N)NC(=O)[C@H](C)NC(=O)[C@@H](NC(=O)[C@H](CCC(N)=O)NC(=O)[C@H](C)NC(=O)[C@@H](NC(=O)[C@H](CO)NC(=O)[C@H](CC(C)C)NC(=O)[C@H](Cc1c[nH]cn1)NC(=O)[C@H](CO)NC(=O)[C@H](C)NC(=O)CC[C@H](NC(=O)CCCCCCCCCCCCCCCCC(=O)O)C(=O)O)[C@@H](C)O)[C@@H](C)O)C(=O)N[C@@H](CC(C)C)C(=O)N1CCC[C@H]1C(=O)N1CCC[C@H]1C(=O)N[C@H](C(=O)N[C@@H](CC(=O)O)C(=O)N[C@H](C(=O)NCC(=O)N[C@@H](CO)C(=O)N[C@@H](CC(N)=O)C(=O)N[C@H](C(=O)N1CCC[C@H]1C(N)=O)[C@@H](C)O)C(C)C)[C@@H](C)O` [Compound 14, N^1-[(4S)-4-carboxy-4-(17-carboxyheptadecanoylamino)butanoyl]-[Ala1,Ser2,His3,Leu4,Ser5,Ala7,Gln8,Ala10,Glu14,His17,Asp21,Pro25,Pro28,Pro29,Asp31,Pro37]-human amylin] ({C18 diacid-γGlu}-ASHLSTAQTARLAEFLHHSSDNFGPILPPTDVGSNTP-NH2), for which, in data set [1], the pEC50 is 11.89. Moreover, in data set [2], the half-life is 4.71 days, the “AUC/D” value was found to be 20.76 kg·h/L and the “Cmax/D” value is listed as 0.34 kg/L.

For the compound `CC[C@H](C)[C@H](NC(=O)[C@@H]1CCCN1C(=O)CNC(=O)[C@H](Cc1ccccc1)NC(=O)[C@H](Cc1c[nH]cn1)NC(=O)[C@H](Cc1c[nH]cn1)NC(=O)[C@H](CC(C)C)NC(=O)[C@H](Cc1ccccc1)NC(=O)[C@H](CCC(=O)O)NC(=O)[C@H](C)NC(=O)[C@H](CC(C)C)NC(=O)[C@H](CCCNC(=N)N)NC(=O)[C@H](C)NC(=O)[C@@H](NC(=O)[C@H](CCC(N)=O)NC(=O)[C@H](C)NC(=O)[C@@H](NC(=O)[C@H](CO)NC(=O)[C@H](CC(C)C)NC(=O)[C@H](CCC(=O)O)NC(=O)CNC(=O)[C@H](C)NC(=O)CC[C@H](NC(=O)CCCCCCCCCCCCCCCCC(=O)O)C(=O)O)[C@@H](C)O)[C@@H](C)O)C(=O)N[C@@H](CC(C)C)C(=O)N1CCC[C@H]1C(=O)N1CCC[C@H]1C(=O)N[C@H](C(=O)N[C@@H](CC(=O)O)C(=O)N[C@H](C(=O)NCC(=O)N[C@@H](CO)C(=O)N[C@@H](CCC(=O)O)C(=O)N[C@H](C(=O)N1CCC[C@H]1C(N)=O)[C@@H](C)O)C(C)C)[C@@H](C)O` [Compound 16, N^1-[(4S)-4-carboxy-4-(17-carboxyheptadecanoylamino)butanoyl]-[Ala1,Gly2,Glu3,Leu4,Ser5,Ala7,Gln8,Ala10,Glu14,His17,Pro25,Pro28,Pro29,Asp31,Glu35,Pro37],des-(19-22)-human amylin] ({C18 diacid-γGlu}-AGELSTAQTARLAEFLHHFGPILPPTDVGSETP-NH2), in data set [1], the negative logarithm of the EC50 (pEC50) was 11.90. In data set [2], the half-life was 3.99 days, the “AUC/D” value was determined as 35.59 kg·h/L and the “Cmax/D” value was found to be 0.48 kg/L.

Take `CC[C@H](C)[C@H](NC(=O)[C@@H]1CCCN1C(=O)CNC(=O)[C@H](Cc1ccccc1)NC(=O)[C@H](Cc1c[nH]cn1)NC(=O)[C@H](Cc1c[nH]cn1)NC(=O)[C@H](CC(C)C)NC(=O)[C@H](Cc1ccccc1)NC(=O)[C@H](CCC(=O)O)NC(=O)[C@H](C)NC(=O)[C@H](CC(C)C)NC(=O)[C@H](CCCNC(=N)N)NC(=O)[C@H](C)NC(=O)[C@@H](NC(=O)[C@H](CCC(N)=O)NC(=O)[C@H](C)NC(=O)[C@@H](NC(=O)[C@H](CO)NC(=O)[C@H](CC(C)C)NC(=O)[C@H](Cc1c[nH]cn1)NC(=O)[C@H](CO)NC(=O)[C@H](C)NC(=O)CC[C@H](NC(=O)CC[C@H](NC(=O)CCCCCCCCCCCCCCCCC(=O)O)C(=O)O)C(=O)O)[C@@H](C)O)[C@@H](C)O)C(=O)N[C@@H](CC(C)C)C(=O)N1CCC[C@H]1C(=O)N1CCC[C@H]1C(=O)N[C@H](C(=O)N[C@@H](CC(=O)O)C(=O)N[C@H](C(=O)NCC(=O)N[C@@H](CO)C(=O)N[C@@H](CCC(=O)O)C(=O)N[C@H](C(=O)N1CCC[C@H]1C(N)=O)[C@@H](C)O)C(C)C)[C@@H](C)O` [Compound 17, N^1-[(4S)-4-carboxy-4-[[(4S)-4-carboxy-4-(17-carboxyheptadecanoylamino)butanoyl]amino]butanoyl]-[Ala1,Ser2,His3,Leu4,Ser5,Ala7,Gln8,Ala10,Glu14,His17,Pro25,Pro28,Pro29,Asp31,Glu35,Pro37],des-(19-22)-human amylin] ({C18 diacid-γGlu-γGlu}-ASHLSTAQTARLAEFLHHFGPILPPTDVGSETP-NH2): the negative-log EC50 (pEC50) in data set [1] was 11.95. In addition, in data set [2], the half-life was 3.95 days, the “AUC/D” value came out at 19.7 kg·h/L and the “Cmax/D” value worked out at 0.28 kg/L.

`CC[C@H](C)[C@H](NC(=O)[C@@H]1CCCN1C(=O)CNC(=O)[C@H](Cc1ccccc1)NC(=O)[C@H](CC(N)=O)NC(=O)[C@H](CC(=O)O)NC(=O)[C@H](CO)NC(=O)[C@H](CO)NC(=O)[C@H](Cc1c[nH]cn1)NC(=O)[C@H](Cc1c[nH]cn1)NC(=O)[C@H](CC(C)C)NC(=O)[C@H](Cc1ccccc1)NC(=O)[C@H](CCC(=O)O)NC(=O)[C@H](C)NC(=O)[C@H](CC(C)C)NC(=O)[C@H](CCCNC(=N)N)NC(=O)[C@H](C)NC(=O)[C@@H](NC(=O)[C@H](CCC(N)=O)NC(=O)[C@H](C)NC(=O)[C@@H](NC(=O)[C@H](CO)NC(=O)[C@H](CC(C)C)NC(=O)[C@H](CCC(N)=O)NC(=O)[C@H](CO)NC(=O)[C@H](C)NC(=O)CC[C@H](NC(=O)CCCCCCCCCCCCCCCCC(=O)O)C(=O)O)[C@@H](C)O)[C@@H](C)O)C(=O)N[C@@H](CC(C)C)C(=O)N1CCC[C@H]1C(=O)N1CCC[C@H]1C(=O)N[C@H](C(=O)N[C@@H](CC(=O)O)C(=O)N[C@H](C(=O)NCC(=O)N[C@@H](CO)C(=O)N[C@@H](CC(N)=O)C(=O)N[C@H](C(=O)N1CCC[C@H]1C(N)=O)[C@@H](C)O)C(C)C)[C@@H](C)O` [Compound 22, N^1-[(4S)-4-carboxy-4-(17-carboxyheptadecanoylamino)butanoyl]-[Ala1,Ser2,Gln3,Leu4,Ser5,Ala7,Gln8,Ala10,Glu14,His17,Asp21,Pro25,Pro28,Pro29,Asp31,Pro37]-human amylin] ({C18 diacid-γGlu}-ASQLSTAQTARLAEFLHHSSDNFGPILPPTDVGSNTP-NH2): in data set [1], the negative logarithm of the EC50 (pEC50) was 11.91. Further, in data set [2], the half-life was 4.02 days, the “AUC/D” value worked out at 24.43 kg·h/L and the “Cmax/D” value is 0.35 kg/L.
